The source of these data is patent US20220401414A1, “TREATMENT AND PREVENTION OF A NEURODEGENERATIVE DISORDER” (Inflazome Limited, priority 2019, published 2022).

The test system of this assay is 6-OHDA mouse model of Parkinson's disease. Description: Studies C and D: amphetamine-induced ipsilateral rotations in the 6-OHDA mouse model. The assay is classed as in vivo, C57BL6 mice. Particulars: Study D, 3 mg/kg oral daily, day 21 after 6-OHDA (12 μg). As for the experimental part:
To determine the oral efficacy of the compound of formula (I) in the 6-OHDA mouse model of Parkinson's disease.
8-week-old C57BL6 male mice (obtained from ARC, Perth, Australia) were housed under a 12-h light cycle in a SPF climate-controlled facility with food and water provided ad libitum for two weeks prior to study initiation. For treatment with the compound of formula (I), mice were dosed via oral gavage. Ten (10) mice in each group were dosed at 3 or 1 mg/kg, starting the day before (24 hr prior) stereotaxic surgery, and then QD until sacrifice.
6-OHDA (Sigma) was prepared immediately prior to surgeries. A sterile saline (0.9%) solution containing ascorbic acid (0.2%) was used as the vehicle to dissolve 6-OHDA. […] In order to inject a final concentration of 12 μg into the right striatum, a working stock of 6 mg/ml was made injecting a final volume of 2 μl.
Mice were anaesthetized using ketamine (100 mg/kg, i.p.) and xylazine (10 mg/kg i.p.)
anesthesia and were placed into a stereotactic frame with nose and ear bars specially adapted for mice. The lesion was performed using a 5 μl Hamilton syringe to deliver either vehicle or 6-OHDA (12 μg) at the following coordinates relative to bregma: AP: −1.2 mm; ML: −1.7 mm; DV: 3.5 mm into the right dorsal striatum according to the stereotaxic atlas (“The mouse brain in stereotaxic coordinates” by Paxinos and Franklin, 1997). After drilling a 1 mm burr-hole in the skull, a 2 μl volume of solution was infused at the target site at the rate of 0.5 μl per minute. The needle was held in place for at least 5 minutes after injection to minimize retrograde flow along the needle tract. Mice were administered a subcutaneous injection of sterile Ringer's solution to is facilitate recovery and were placed on a heat-pad until complete recovery from anesthesia.
Amphetamine-induced ipsilateral rotations were performed at day 21 post-surgery. Mice were injected with 2 mg/kg of D-amphetamine and placed in circular glass bowls.
After an acclimatization period of five minutes, the net ipsilateral rotations over ten minutes were recorded and counted. Quantitation was performed from recorded videos by an investigator blinded to the treatment groups.
The aim of study D was to compare the neuroprotective efficacy of the compound of formula (I) with MCC95o in the mouse unilateral 6-OHDA model at 3 mg/kg. The amphetamine-induced ipsilateral rotations and striatal dopamine (DA) levels were assessed, using a protocol identical to that used for study C, with ten (10) mice in each group being dosed at 3 mg/kg for each drug, starting the day before (24 hr prior) stereotaxic surgery, and then daily throughout until sacrifice.

With `CC(C)(O)c1coc(S(=O)(=O)NC(=O)Nc2c3c(cc4c2CCC4)CCC3)c1` [MCC950, reference compound], the “reduction in amphetamine-induced rotations relative to the 6-OHDA untreated group” value turned out to be 55%.
